Assays:
[1] = Stability in the presence of acid (96% sulfuric acid, GLC); type: physicochemical
Method: To assess hydrolytic stability under acidic conditions, C4F9OCH3 (15 g, 0.06 mole) was combined with sulfuric acid (10 g of 96% by weight, 0.097 mole) in a 50 mL flask containing a stir bar and fitted with a reflux condenser. The resulting mixture was stirred for 16 hours at room temperature, and then the resulting upper fluorochemical phase was separated from the resulting lower sulfuric acid phase. […] Chem. 49, 4007 (1984), which states that “[f]luorine atoms attached to carbon which also bears an alkyl ether group are known to be labile to electrophilic reagents. They are readily hydrolyzed in concentrated sulfuric acid, thus providing a route to some esters of fluoroacids.”

[2] = Mineral oil removal from aluminum coupon, sonication in solvent; settings: sonicated 1 minute
Method: In the following Examples and Comparative Examples, the cleaning ability of the alkoxy-substituted perfluorocompounds used in the cleaning process of the invention was further evaluated. A 1.28 cm×1.28 cm×0.225 cm wire-wrapped, aluminum coupon was coated with white heavy mineral oil (available from Aldrich Chemical) by immersing the coupon in an oil-filled beaker. The initial amount of the oil on the coupon was determined by weighing it on an analytical balance to the nearest 0.1 mg. The coupon was immersed in a container of solvent and sonicated for 1 minute at the indicated temperature (see Table 3 below for the solvents and temperatures used). The coupon was then weighed again, and the results were recorded in Table 3 as percent oil removal.

[3] = Fluorinated oil removal from aluminum coupon; settings: Krytox 157FSM, room temperature
Method: Using essentially the same procedure as that described in Examples 8-10, the ability of the alkoxy-substituted perfluorocompounds to remove a fluorinated oil was evaluated. As in the previous Examples, a coupon was immersed in Krytox™ 157FSM perfluoropolyether oil having carboxylic acid end groups (available from DuPont), and the percent oil remaining after immersion in the solvent (at room temperature) was determined.

[4] = Rinse agent in co-solvent cleaning of solder flux; settings: solvating agent 1 minute at about 55° C., then 30 seconds in boiling solvent
Method: The ability of alkoxy-substituted perfluorocompounds to function as a rinse agent in a co-solvent cleaning process was evaluated. The above-described aluminum coupon was coated with solder flux (available from Alpha Metals as Alpha 611 rosin, mildly activated flux) by immersing the coupon into a flux-filled beaker. The flux-coated coupon was then dried using a forced air convection drier. The initial amount of the flux on the coupon was determined by weighing it on an analytical balance to the nearest 0.1 mg. The coupon was immersed in a container of a mixed solvating agent comprising approximately 50% methyl decanoate and 50% dipropylene glycol di-n-butyl ether and was sonicated for 1 minute at approximately 55° C. The coupon was then immersed for 30 seconds into alkoxy-substituted perfluorocompound which had been heated to its boiling point. The coupon was weighed again, and the results were recorded in Table 5 below as percent oil removed from the coupon.

[5] = Perfluoropolyether oil removal in solvent vapor; settings: Brayco 815Z; vapor over boiling liquid, 60 seconds
Method: The above-described aluminum coupon was dipped into Brayco 815Z perfluoropolyether oil (available from Castrol Inc., molecular weight of about 10,000) and then immersed in alkoxy-substituted perfluorocompound vapor (over the boiling liquid) for 60 seconds. The percent oil removal was determined in the above-described manner.

[6] = Paraffinic oil removal: solvating agent, then rinse in boiling solvent; settings: methyl caproate/dipropylene glycol di-n-butyl ether 30 seconds, boiling rinse 30 seconds
Method: The above-described test coupon was dipped into a paraffinic oil comprising a mixture of linear and branched hydrocarbons (DuoSeal Pump Oil, available from Sargent Welch), was immersed in mixed solvating agent comprising approximately 50% methyl caproate and 50% dipropylene glycol di-n-butyl ether for 30 seconds, and was then rinsed in boiling alkoxy-substituted perfluorocompound for 30 seconds. The percent oil removal was determined in the above-described manner.

[7] = Mineral oil removal with boiling methyl decanoate/perfluorocompound mixture; settings: boiling mixture 40 volume % methyl decanoate, 60 volume % perfluorocompound
Method: The above-described test coupon was dipped in white heavy mineral oil (available from Aldrich Chemical), was immersed in a boiling single-phase mixture of 40 volume % of a solvating agent comprising essentially methyl decanoate and 60 volume % of alkoxy-substituted perfluorocompound (a cleaning composition of the invention) for 60 seconds, was cooled for 60 seconds, and was then immersed in mixture vapor for 30 seconds. The percent oil removal was determined in the above-described manner.

[8] = Pump oil removal with n-C6H14/perfluorocompound mixture at room temperature, ultrasonic; settings: 40 volume % n-C6H14, 60 volume % fluorinated component, 60 seconds
Method: The above-described test coupon was dipped into DuoSeal Pump Oil (available from Sargent-Welch) and was then immersed in a mixture of 40 volume % n-C6H14 and 60 volume % alkoxy-substituted perfluorocompound (a cleaning composition of the invention) for 60 seconds at room temperature with ultrasonic agitation. The percent oil removal was determined in the above-described manner.

[9] = Pump oil removal in vapor of boiling n-C6H14/perfluorocompound mixture; settings: vapor of boiling 40 volume % n-C6H14, 60 volume % fluorinated component; 60 seconds
Method: The above-described test coupon was dipped into DuoSeal Pump Oil (available from Sargent-Welch) and was then immersed in the vapor of a boiling mixture of 40 volume % n-C6H14 and 60 volume % alkoxy-substituted perfluorocompound (a cleaning composition of the invention), for 60 seconds. The percent oil removal was determined in the above-described manner.

[10] = Closed cup flash point ASTM D3278-96; type: physicochemical
Method: Various properties were measured for C4F9OCH3, CHClFCF2OCH3, and blends of each ether compound with cosolvent, trans-1,2-dichloroethylene (hereinafter, t-DCE) or n-butyl bromide, at various weight ratios.

[11] = Solvency properties: largest normal hydrocarbon alkane soluble at 50 percent by volume
Method: A number of potential solvents were tested for their ability to dissolve hydrocarbons of increasing molecular weight according to the procedure described in U.S. Pat. No. 5,275,669 (Van Der Puy et al.), the description of which is incorporated herein by reference. The data shown in Table 1 were obtained by determining the largest normal hydrocarbon alkane which was soluble in a particular solvent at a level of 50 percent by volume. The numbers in the Table correspond with the carbon number of the largest alkane, e.g., “8” refers to octane. Measurements were made from room temperature up to the boiling point of the solvent. For comparative purposes, hydrofluorocarbons (HFCs) and perfluorocarbons (PFCs) were also tested using this method.
Using essentially the above-described method, the solvency properties of other alkoxy-substituted perfluorocompounds were tested at room temperature.

[12] = 20 weight % ether, 80 % n-butyl bromide
[13] = 30 weight % ether, 70 % n-butyl bromide
[14] = 50 weight % ether, 50 % n-butyl bromide
[15] = 80 weight % ether, 20 % n-butyl bromide

With `COC(F)(F)C(F)(F)C(F)(F)C(F)(F)F` [Example C4F9OCH3, perfluorobutyl methyl ether] the “Stability in the presence of acid” value ([1]; 96% sulfuric acid, 16 hours at room temperature) was “stable in the presence of the acid”, the “Stability in Presence of Acid: conversion to ester” value ([1]; neat ether, sulfuric acid as in Stability in the Presence of Acid section) was “no rxn. (0%” and the percent oil removal ([2]; 23 ° C.) was 60.3%. For the same compound, the percent oil removal ([2]; 50 ° C.) was 98.7%, the percent oil removal ([2]; 60 ° C.) was 99.9% and the “% Removed” value [3] was 99.1%. For the same compound, the “% Removed” value [4] was 100.0%, the “Percent Soil Removed” value [5] was 89.9% and the “Percent Soil Removed” value [6] was 99.8%. The “Percent Soil Removed” value [7] was 94.61%, the “Percent Soil Removed” value [8] was 92.5% and the “Percent Soil Removed” value [9] was 90.8%. For the same compound, the “Closed Cup Flash Point (ASTM D3278-96)” value [10, 12] was “none^4”, the “Closed Cup Flash Point (ASTM D3278-96)” value [10, 13] was “none^4” and the “Closed Cup Flash Point (ASTM D3278-96)” value [10, 14] was “none^4”. For the same compound, the “Closed Cup Flash Point (ASTM D3278-96)” value [10, 15] was “none^4”, the “Closed Cup Flash Point (ASTM D3278-96)” value ([10]; 100 weight % ether, 0 % n-butyl bromide, raised to 140° F. (60° C.)) was “none^4” and the “Largest Carbon Number of Longest Hydrocarbon Alkane to Dissolve” value (shortened to “Largest Carbon Number”) [11, 12] was 21. For the same compound, the “Largest Carbon Number” value ([11]; 20 weight % ether, 80 % t-DCE) was 22, the “Largest Carbon Number” value [11, 13] was 21 and the “Largest Carbon Number” value [11, 14] was 15. For the same compound, the “Largest Carbon Number” value ([11]; 50 weight % ether, 50 % t-DCE) was 16, the “Largest Carbon Number” value [11, 15] was 11 and the “Largest Carbon Number” value ([11]; 80 weight % ether, 20 % t-DCE) was 11. The “Largest Carbon Number” value ([11]; 100 weight % ether, 0 % n-butyl bromide) was 9 and the “Largest Carbon Number” value ([11]; 100 weight % ether, 0 % t-DCE) was 9.
